Measured values: patent publication US10548829B2, “Oral care compositions and methods of use” (priority 2016, dated 2020)

What was measured:
[1] = tested on: HaCaT cells; test: Scratch assay, cell migration/proliferation "wound healing"; format: cell-based, human; conditions: 0.1 mM in 1% DMSO complete media
Method: Cell Culture: Spontaneously immortalized human keratinocyte line, HaCaT cells (AddexBio, San Diego, Calif., cat # T0020001) were cultured in 25 cm^2 vented, Falcon canted tissue culture flasks (VWR, Radnor, Pa., cat #353108) using complete DMEM media (Life Technologies, Grand Island, N.Y., cat #11965-092) supplemented with 10% characterized Hyclone FBS (VWR, Radnor, Pa., cat #1677-014) and 1× Penicillin—Streptomycin (Life Technologies, Grand Island, N.Y., cat #15140122). The cultures were incubated at 37° C. and 5% CO2 until the cells reached around 70-80% confluence. […]
Assay sample preparation: Samples were prepared in a final concentration of 1% DMSO in complete media. […] Two different batches of product 5 were tested at 0.15 mM, the average % Growth Relative to day 0 (d0) was determined and presented in FIG. 20. […]
Quantifying cell migration/wound healing: To explore the effects of various actives on cell migration/wound healing, the size of the freshly generated wound (the gap size) was determined following treatment using an inverted microscope (Olympus 1X71, Olympus Scientific Solutions Americas, Waltham, Mass.) and Cellsens Dimension 1.11 (Olympus Corporation, Waltham, Mass.) software and monitored until the gap closed completely. […] The mean of each arm was determined for each day of the study until the wound heal and no gap existed. […]

[2] = tested on: EpiGingival™ tissue models; test: Tissue zinc uptake analysis; format: in vitro ADME; conditions: 2 minute treatment
Method: All samples were prepared in a final concentration of 1% DMSO in 7% of Propylene Glycol (PG). […] For the vehicle only control, 1% DMSO in 7% PG was used. All samples were equilibrated to 37° C. prior to testing.
Zinc uptake studies were performed using EpiGingival™ tissue models from MatTek Corporation. Briefly, EpiGingival™ tissue inserts were equilibrated overnight in 1 ml of the EpiGingival™ assay media (supplied by MatTek Corporation). For testing, working with one insert at a time, the insert was removed and placed inside a clean 6 well plate. Then, 1 ml of the test sample was carefully removed and introduced to the inside of the insert and allowed to incubate for 2 minutes. Next, the samples were removed using an aspirator and the tissue rinsed with 1 ml of warm water (37° C.). This was repeated for 2 more times for a total of 3 washes. At the end of the last wash making sure to remove as much of the water as possible, the tissue was disengaged from the insert with the tip of a sterile forceps, and transferred into a clean 15 ml Falcon tube. The process was repeated until all the tissues were treated. Experiments were performed three times with each test sample assayed in duplicate.
Digestion of Tissues: Briefly, 0.5 ml of a mixture of 7:3 HCl/HNO3 was introduced into a 15 ml Falcon tube containing one of the treated tissue samples and allowed to digest overnight. The following day, 4.5 ml of water was added to each of the digested tissue samples, thoroughly mixed and centrifuged at 4,000 RPM for 10 minutes at room temperature. The clear supernatant (4.5 ml) was transferred into a clean, labeled Falcon tube and submitted for analytical analysis of Zinc.
A one way ANOVA was done to determine the p value. A plot of the average zinc (ppm) against the various treatments was generated (see FIG. 19).

[3] = 1 mM complex or combination, 0.33 mM Zinc acetate

SMILES	wound healing, % growth relative to d0 (in words) [1]	Zn (ppm) Preparation 1 N1 ([2]; 1 mM complex or combination (0.67 mM + 0.33 mM), 0.33 mM Zinc acetate)	Zn (ppm) Preparation 1 N2 [2, 3]	Zn (ppm) Preparation 2 N1 [2, 3]	Zn (ppm) Preparation 2 N2 [2, 3]	Zn (ppm) Preparation 3 N1 [2, 3]	Zn (ppm) Preparation 3 N2 [2, 3]	Zn Ave (ppm) ([2]; average of three preparations in duplicate)
C[C@@H]1O[C@@H](O[C@H]2[C@H](Oc3cc(O)c4c(c3)O[C@H](c3ccc(O)cc3)CC4=O)O[C@H](CO)[C@@H](O)[C@@H]2O)[C@H](O)[C@H](O)[C@H]1O [Naringin]	not significantly different from that of Zinc acetate							
CC(=O)[O-].CC(=O)[O-].[Zn+2] [Zinc Acetate alone, Zinc (II) Acetate]		0.96 ppm	0.92 ppm	0.82 ppm	0.81 ppm	0.84 ppm	0.85 ppm	0.87 ppm
